The values that follow come from PubChem BioAssay AID328 (DTP/NCI, 2004).

This assay concerns BDF1 mice, P388 leukemia ip, median survival T/C. The assay is described as follows: NCI In Vivo Anticancer Drug Screen. Data for tumor model P388 Leukemia (intraperitoneal) in B6D2F1 (BDF1) mice. Conditions: endpoint: median survival time, higher = longer survival. The gist of the method:
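Read-out is survival of treated animals expressed relative to the vehicle group, as a T/C ratio.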

Setting [1] is: dose: 6.25 mg/kg/injection, schedule: Q04DX003 (ip), vehicle: saline.
The mark [2] stands for this setting: dose: 12.5 mg/kg/injection, schedule: Q04DX003 (ip), vehicle: saline.
The mark [3] stands for this setting: dose: 50.0 mg/kg/injection, schedule: Q01DX009 (ip), vehicle: saline with Tween-80.
Setting [4] is: dose: 100.0 mg/kg/injection, schedule: Q01DX009 (ip), vehicle: saline with Tween-80.
Setting [5] is: dose: 200.0 mg/kg/injection, schedule: Q01DX009 (ip), vehicle: saline with Tween-80.
The mark [6] stands for this setting: dose: 6.25 mg/kg/injection, schedule: Q01DX009 (ip), vehicle: saline with Tween-80.
Setting [7] is: dose: 100.0 mg/kg/injection, schedule: Q04DX003 (ip), vehicle: saline with Tween-80.
[8] abbreviates: dose: 200.0 mg/kg/injection, schedule: Q04DX003 (ip), vehicle: saline with Tween-80.
Where [9] appears, read: dose: 400.0 mg/kg/injection, schedule: Q01DX009 (ip), vehicle: saline with Tween-80.
[10] abbreviates: dose: 400.0 mg/kg/injection, schedule: Q04DX003 (ip), vehicle: saline with Tween-80.
Setting [11] is: dose: 12.5 mg/kg/injection, schedule: Q01DX009 (ip), vehicle: saline with Tween-80.
The mark [12] stands for this setting: dose: 25.0 mg/kg/injection, schedule: Q01DX009 (ip), vehicle: saline with Tween-80.
Setting [13] is: dose: 100.0 mg/kg/injection, schedule: Q01DX001 (ip), vehicle: saline with Tween-80.
The mark [14] stands for this setting: dose: 200.0 mg/kg/injection, schedule: Q01DX001 (ip), vehicle: saline with Tween-80.
The mark [15] stands for this setting: dose: 100.0 mg/kg/injection, schedule: Q04DX003 (ip), vehicle: Klucel (hydroxypropylcellulose) (HPC).
Setting [16] is: dose: 200.0 mg/kg/injection, schedule: Q04DX003 (ip), vehicle: Klucel (hydroxypropylcellulose) (HPC).
Setting [17] is: dose: 400.0 mg/kg/injection, schedule: Q04DX003 (ip), vehicle: Klucel (hydroxypropylcellulose) (HPC).

Where “and” joins values, the source holds several entries; their conditions need not be identical. Identical values can stand only once. Toxic doses and inconclusive results are not listed.

With `CC(=O)OCCCl`, the T/C was 99 % of control (dose: 50.0 mg/kg/injection, schedule: Q04DX003 (ip), vehicle: suspension in saline); 103 % of control (dose: 100.0 mg/kg/injection, schedule: Q04DX003 (ip), vehicle: suspension in saline); 103 % of control (dose: 200.0 mg/kg/injection, schedule: Q04DX003 (ip), vehicle: suspension in saline); 114 % of control (dose: 400.0 mg/kg/injection, schedule: Q04DX003 (ip), vehicle: suspension in saline).

In the case of `C/C=C/C[n+]1cccc2ccccc21`, the T/C (dose: 6.25 mg/kg/injection, schedule: Q01DX009 (ip), vehicle: Klucel (hydroxypropylcellulose) (HPC)) is 86 % of control; the T/C under setting [1] is 104 % of control; the T/C (dose: 12.5 mg/kg/injection, schedule: Q01DX009 (ip), vehicle: Klucel (hydroxypropylcellulose) (HPC)) was 90 % of control; the T/C under setting [2] is 104 % of control; the T/C (dose: 25.0 mg/kg/injection, schedule: Q01DX009 (ip), vehicle: Klucel (hydroxypropylcellulose) (HPC)) is 86 % of control; the T/C (dose: 25.0 mg/kg/injection, schedule: Q04DX003 (ip), vehicle: saline) is 109 % of control.

As for `CCCCNC(C)(C)C(SSSC(c1ccc(C(F)(F)F)cc1)C(C)(C)NCCCC)c1ccc(C(F)(F)F)cc1` (stereo not drawn), the T/C reads like this: (dose: 100.0 mg/kg/injection, schedule: Q04DX003 (ip), vehicle: saline) 120 % of control; (dose: 400.0 mg/kg/injection, schedule: Q04DX003 (ip), vehicle: saline) 120 % of control.

For `NC(=O)c1c(Br)n(C2OC(CO)C(O)C2O)c2ncnc(N)c12` (stereo not drawn), the T/C (dose: 50.0 mg/kg/injection, schedule: Q01DX009 (ip), vehicle: saline) is 95 % of control.

With `O=C(Nc1ccc2ccccc2c1)c1ccc(Cl)cc1Cl`, the T/C runs as follows: (dose: 75.0 mg/kg/injection, schedule: Q01DX001 (ip), vehicle: saline with Tween-80) 95 % of control; (dose: 150.0 mg/kg/injection, schedule: Q01DX001 (ip), vehicle: saline with Tween-80) 86 % of control; (dose: 300.0 mg/kg/injection, schedule: Q01DX001 (ip), vehicle: saline with Tween-80) 90 % of control.

In the case of `O=[N+]([O-])c1ccc(S(=O)(=O)c2ccc([N+](=O)[O-])c3no[n+]([O-])c23)cc1`, the T/C reads like this: (dose: 15.0 mg/kg/injection, schedule: Q01DX009 (ip), vehicle: saline with Tween-80) 100 % of control; (dose: 30.0 mg/kg/injection, schedule: Q01DX009 (ip), vehicle: saline with Tween-80) 90 % of control.

Regarding `COc1ccc2[nH]c3c(c2c1)CCNC3CC(C)CCC=C(C)C` (stereo not drawn), the T/C reads like this: under setting [3], 93 % of control; under setting [4], 113 % of control.

With `CN(C)/C=C/C=C1C(=O)N(C)C(=O)N(C)C1=O`, the T/C is 94 % of control (dose: 50.0 mg/kg/injection, schedule: Q01DX009 (ip), vehicle: other); 97 % of control (dose: 100.0 mg/kg/injection, schedule: Q01DX009 (ip), vehicle: other); 102 % of control (dose: 200.0 mg/kg/injection, schedule: Q01DX009 (ip), vehicle: other).

As to `COc1ccc(C(=O)/C=C/c2ccc(OCc3ccccc3)cc2)c(OC)c1`, the T/C is, setting by setting: under setting [3], 103 % of control; under setting [4], 94 % of control; under setting [5], 90 % of control.

Turning to `CCN(CC)CCNc1ccc(COC(=O)NC)c2sc3ccccc3c(=O)c12`, the T/C under setting [6] was 166 % of control.

As to `COc1cc(/C=N/NC(N)=S)cc(OC)c1OC`, the T/C is, setting by setting: under setting [4], 104 % of control; under setting [7], 90 % of control; under setting [5], 104 % of control; under setting [8], 109 % of control; under setting [9], 100 % of control; under setting [10], 104 % of control.

In the case of `COC1(c2ccc([N+](=O)[O-])o2)OC1(C)C` (stereo not drawn), the T/C is 111 % of control under setting [11]; 118 % of control under setting [12]; 113 % of control under setting [3]; 111 % of control under setting [4]; 99 % of control under setting [7]; 117 % of control under setting [5]. The T/C was 107 % of control under setting [8], 108 % of control under setting [9] and 109 % of control under setting [10].

With `Cc1nnc2c(=O)[nH]ccn12`, the T/C is 106 % of control under setting [13]; 100 % of control under setting [14]; 103 % of control (dose: 400.0 mg/kg/injection, schedule: Q01DX001 (ip), vehicle: saline with Tween-80).

Take `O=[N+]([O-])c1ccc(/C=C/c2ccccn2)s1`: the T/C is, setting by setting: under setting [15], 100 % of control; under setting [16], 100 % of control; under setting [17], 100 % of control.

As to `Cc1c(C=[N+]2CCCCC2)c2ccccc2n1C`, the T/C runs as follows: under setting [6], 96 % of control; under setting [11], 105 % of control; under setting [12], 93 % of control; under setting [3], 99 % of control.

Regarding `C=CC=O`, the T/C (dose: 0.45 mg/kg/injection, schedule: Q01DX009 (ip), vehicle: saline) was 100 % of control; the T/C (dose: 0.45 mg/kg/injection, schedule: Q04DX003 (ip), vehicle: saline) was 109 % of control; the T/C (dose: 0.9 mg/kg/injection, schedule: Q01DX009 (ip), vehicle: saline) is 108 % of control; the T/C (dose: 0.9 mg/kg/injection, schedule: Q04DX003 (ip), vehicle: saline) is 100 % of control; the T/C (dose: 1.8 mg/kg/injection, schedule: Q01DX009 (ip), vehicle: saline) is 112 % of control; the T/C (dose: 1.8 mg/kg/injection, schedule: Q04DX003 (ip), vehicle: saline) was 109 % of control. The T/C was 109 % of control (dose: 6.25 mg/kg/injection, schedule: Q01DX009 (ip), vehicle: saline); 104 % of control under setting [1]; 100 % of control under setting [2].

On to `CC(C)(C)NCCC(O)c1cc2c(Cl)cc(Cl)cc2c2cc(C(F)(F)F)ccc12` (stereo not drawn), for which the T/C is, setting by setting: under setting [11], 90 % of control; under setting [12], 106 % of control; under setting [3], 108 % of control and 114 % of control.

As for `O=S(c1ccccc1)c1c(Cl)c(Cl)nc(Cl)c1Cl` (stereo not drawn), the T/C is 109 % of control (dose: 2.75 mg/kg/injection, schedule: Q01DX009 (ip), vehicle: saline with Tween-80); 118 % of control (dose: 5.5 mg/kg/injection, schedule: Q01DX009 (ip), vehicle: saline with Tween-80); 113 % of control (dose: 11.0 mg/kg/injection, schedule: Q01DX009 (ip), vehicle: saline with Tween-80); 113 % of control (dose: 25.0 mg/kg/injection, schedule: Q04DX003 (ip), vehicle: saline with Tween-80); 121 % of control (dose: 50.0 mg/kg/injection, schedule: Q04DX003 (ip), vehicle: saline with Tween-80).

On to `CCOC(=O)C(CCCO)C(=O)OCC`, for which the T/C is 115 % of control (dose: 50.0 mg/kg/injection, schedule: Q01DX001 (ip), vehicle: saline with Tween-80); 100 % of control under setting [13]; 110 % of control under setting [14].

For `O=C1c2ccccc2C(=O)N1N(c1ccccc1)c1ccccc1`, the T/C (dose: 100.0 mg/kg/injection, schedule: Q01DX009 (ip), vehicle: Klucel (hydroxypropylcellulose) (HPC)) was 104 % of control; the T/C under setting [15] is 110 % of control; the T/C under setting [16] was 120 % of control; the T/C (dose: 400.0 mg/kg/injection, schedule: Q01DX009 (ip), vehicle: Klucel (hydroxypropylcellulose) (HPC)) was 100 % of control; the T/C under setting [17] was 105 % of control.

As to `NC(Cc1ccccc1Cl)c1nn[nH]n1` (stereo not drawn), the T/C by setting is: (dose: 50.0 mg/kg/injection, schedule: Q04DX002 (ip), vehicle: saline with Tween-80) 100 % of control; (dose: 200.0 mg/kg/injection, schedule: Q04DX002 (ip), vehicle: saline with Tween-80) 121 % of control.

As for `COC(=O)CC(CC(=O)c1ccccc1)c1ccccc1` (stereo not drawn), the T/C under setting [3] was 95 % of control, the T/C under setting [4] is 97 % of control, the T/C under setting [5] was 87 % of control and the T/C under setting [9] was 88 % of control.
